Holding throughout (assay type): in vivo
Experiment [1] has as its system Lolium perenne (LOLPE). In words: Post-emergence herbicidal activity, glasshouse pot test. The following applies: Lolium perenne, 312 h, rate 250 g/ha, evaluated after 13 days, glasshouse, read-out: Post-emergence activity LOLPE (100=total damage to plant; 0=no damage to plant). The method in brief:
(§1)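 Sow seeds in standard soil in pots; grow 1 day (pre-emergence) or 8 days (post-emergence) at 24/16° C, 14 h light, 65% humidity. Spray aqueous solution from acetone/water 50:50 + 0.5% Tween 20 formulation. Grow on, watering twice daily; score damage 0–100 after 13 days.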

The test system of experiment [2] is Avena fatua (AVEFA). The description is as above. To be noted: Avena fatua, 312 h, rate 250 g/ha, evaluated after 13 days, glasshouse, read-out: Post-emergence activity AVEFA (100=total damage to plant; 0=no damage to plant). The method in brief: as §1
In experiment [3] the test system is Alopecurus myosuroides (ALOMY). Described as above. To be noted: Alopecurus myosuroides, 312 h, rate 250 g/ha, evaluated after 13 days, glasshouse, read-out: Post-emergence activity ALOMY (100=total damage to plant; 0=no damage to plant). The method in brief:
as §1

The test system of experiment [4] is Echinochloa crus-galli (ECHCG). Described as above. The following applies: Echinochloa crus-galli, 312 h, rate 250 g/ha, evaluated after 13 days, glasshouse, read-out: Post-emergence activity ECHCG (100=total damage to plant; 0=no damage to plant). The method in brief:
as §1

In experiment [5] the test system is Lolium perenne (LOLPE). In words: Pre-emergence herbicidal activity, glasshouse pot test. To be noted: Lolium perenne, 312 h; Rate 250 g/ha; pre-emergence spray; evaluated after 13 days; read-out: Pre-emergence activity LOLPE (100=total damage to plant; 0=no damage to plant). The method in brief:
as §1

The subject of experiment [6] is Avena fatua (AVEFA). Described as above. To be noted: Avena fatua, 312 h; Rate 250 g/ha; pre-emergence spray; evaluated after 13 days; read-out: Pre-emergence activity AVEFA (100=total damage to plant; 0=no damage to plant). The method in brief:
as §1

Experiment [7] has as its system Alopecurus myosuroides (ALOMY). Described as above. To be noted: Alopecurus myosuroides, 312 h; Rate 250 g/ha; pre-emergence spray; evaluated after 13 days; read-out: Pre-emergence activity ALOMY (100=total damage to plant; 0=no damage to plant). The method in brief: as §1
The test system of experiment [8] is Echinochloa crus-galli (ECHCG). The experiment is described as above. To be noted: Echinochloa crus-galli, 312 h; Rate 250 g/ha; pre-emergence spray; evaluated after 13 days; read-out: Pre-emergence activity ECHCG (100=total damage to plant; 0=no damage to plant). The method in brief: as §1

As for `CCc1ccc(Oc2cc(F)cc(F)n2)cc1C1=C(O)C(C)(C)OC(C)(C)C1=O` [Example A-156], the pest or weed control at 250 g/ha in experiment [1] amounted to 20%; in experiment [2] it was 20%; in experiment [3], 30%; in experiment [4] it was 50%; in experiment [5], 20%; in experiment [6], 0%. The figures for the pest or weed control at 250 g/ha in experiment [7] and in experiment [8] were 20% and 60%, respectively.

`CCc1ccc(Oc2ncc(I)cc2Cl)cc1C1=C(O)C(C)(C)OC(C)(C)C1=O` [Example A-157]: the pest or weed control at 250 g/ha worked out at 90% in experiment [1]; 100% in experiment [2]; 90% in experiment [3]; 100% in experiment [4]; 50% in experiment [5]; 30% in experiment [6]. The pest or weed control at 250 g/ha in experiment [7] is 40%; in experiment [8], 80%.

For the compound `CCc1ccc(Oc2ccc3cc(Cl)ccc3n2)cc1C1=C(O)C(C)(C)OC(C)(C)C1=O` [Example A-159], the pest or weed control at 250 g/ha in experiment [1] amounted to 100%; in experiment [2], 80%; in experiment [3], 80%; in experiment [4] it was 100%; in experiment [5], 100%; in experiment [6], 40%. The pest or weed control at 250 g/ha in experiment [7] amounted to 30%; in experiment [8] it was 90%.

As for `CCc1ccc(Oc2cnc3ccccc3n2)cc1C1=C(O)C(C)(C)OC(C)(C)C1=O` [Example A-161], the pest or weed control at 250 g/ha in experiment [1] turned out to be 90%; in experiment [2], 70%; in experiment [3] it was 100%; in experiment [4] it was 100%; in experiment [5] it was 90%; in experiment [6] it was 50%. For the same compound, the pest or weed control at 250 g/ha in experiment [7] was found to be 70%; in experiment [8], 100%.

As for `CCc1ccc(Oc2ncc(Cl)cc2[N+](=O)[O-])cc1C1=C(O)C(C)(C)OC(C)(C)C1=O` [Example A-162], the pest or weed control at 250 g/ha came out at 70% in experiment [1]; 50% in experiment [2]; 80% in experiment [3]; 90% in experiment [4]; 50% in experiment [5]; 10% in experiment [6]. In addition, the pest or weed control at 250 g/ha came out at 30% in experiment [7] and 60% in experiment [8].

With `CCc1ccc(Oc2ccc(I)cn2)cc1C1=C(O)C(C)(C)OC(C)(C)C1=O` [Example A-163], the pest or weed control at 250 g/ha in experiment [1] was 100%; in experiment [2] it was 90%; in experiment [3], 90%; in experiment [4], 100%; in experiment [5] it was 100%; in experiment [6] it was 70%. Further, the pest or weed control at 250 g/ha in experiment [7] is 70%; in experiment [8], 100%.

Consider `CCc1ccc(Oc2c(F)cc(C#N)cc2F)cc1C1=C(O)C(C)(C)OC(C)(C)C1=O` [Example A-166], for which the pest or weed control at 250 g/ha in experiment [1] worked out at 20%; in experiment [2] it was 20%; in experiment [3], 30%; in experiment [4], 60%; in experiment [5], 10%; in experiment [6], 20%. Further, the results for the pest or weed control at 250 g/ha in experiment [7] and in experiment [8] were 20% and 40%, respectively.

With `CCc1ccc(Oc2nc(F)c(F)cc2F)cc1C1=C(O)C(C)(C)OC(C)(C)C1=O` [Example A-167], the pest or weed control at 250 g/ha in experiment [1] amounted to 50%; in experiment [2] it was 40%; in experiment [3], 60%; in experiment [4], 100%; in experiment [5], 30%; in experiment [6], 10%. Moreover, the pest or weed control at 250 g/ha in experiment [7] is 30%; in experiment [8], 100%.

For `CCc1ccc(Oc2nc3ccc(C)cc3s2)cc1C1=C(O)C(C)(C)OC(C)(C)C1=O` [Example A-168], the pest or weed control at 250 g/ha turned out to be 90% in experiment [1]; 20% in experiment [2]; 90% in experiment [3]; 90% in experiment [4]; 80% in experiment [5]; 10% in experiment [6]. The pest or weed control at 250 g/ha in experiment [7] came out at 60%; in experiment [8], 70%.

With `CCc1ccc(Oc2cc(OC)c(Cl)nn2)cc1C1=C(O)C(C)(C)OC(C)(C)C1=O` [Example A-169], the pest or weed control at 250 g/ha was found to be 20% in experiment [1]; 30% in experiment [2]; 20% in experiment [3]; 30% in experiment [4]; 10% in experiment [5]; 0% in experiment [6]. Further, the pest or weed control at 250 g/ha in experiment [7] was determined as 20%; in experiment [8], 30%.

Turning to `CCc1ccc(Oc2cnc3cc(F)ccc3n2)cc1C1=C(O)C(C)(C)OC(C)(C)C1=O` [Example A-172], the pest or weed control at 250 g/ha in experiment [1] was found to be 100%; in experiment [2], 100%; in experiment [3] it was 100%; in experiment [4], 100%; in experiment [5], 100%; in experiment [6], 60%. For the same compound, the pest or weed control at 250 g/ha was determined as 90% in experiment [7] and 100% in experiment [8].

Regarding `CCc1ccc(Oc2nc3ccc(F)cc3nc2Cl)cc1C1=C(O)C(C)(C)OC(C)(C)C1=O` [Example A-173], the pest or weed control at 250 g/ha in experiment [1] came to 10%; in experiment [2], 10%; in experiment [3], 0%; in experiment [4], 20%; in experiment [5], 10%; in experiment [6], 0%. Also, the pest or weed control at 250 g/ha came to 0% in experiment [7] and 50% in experiment [8].

On to `CCc1ccc(Oc2nc3ccccc3nc2C(F)(F)F)cc1C1=C(O)C(C)(C)OC(C)(C)C1=O` [Example A-174], for which the pest or weed control at 250 g/ha in experiment [1] came out at 90%; in experiment [2], 100%; in experiment [3], 90%; in experiment [4], 100%; in experiment [5] it was 70%; in experiment [6], 40%. For the same compound, the pest or weed control at 250 g/ha turned out to be 50% in experiment [7] and 100% in experiment [8].

Take `CCc1ccc(Oc2ccc(F)c(F)c2)cc1C1=C(O)C(C)(C)OC(C)(C)C1=O` [Example A-177]: the pest or weed control at 250 g/ha in experiment [1] amounted to 40%; in experiment [2] it was 20%; in experiment [3], 0%; in experiment [4], 70%; in experiment [5], 30%; in experiment [6], 0%. Moreover, the pest or weed control at 250 g/ha in experiment [7] amounted to 0%; in experiment [8], 60%.

For `CCc1ccc(Oc2ccc(F)c(C(F)(F)F)c2)cc1C1=C(O)C(C)(C)OC(C)(C)C1=O` [Example A-178], the pest or weed control at 250 g/ha worked out at 30% in experiment [1]; 40% in experiment [2]; 40% in experiment [3]; 80% in experiment [4]; 0% in experiment [5]; 0% in experiment [6]. The pest or weed control at 250 g/ha in experiment [7] and in experiment [8] was 10% each time.

Take `CCc1ccc(Oc2ccc(Cl)cc2OC)cc1C1=C(O)C(C)(C)OC(C)(C)C1=O` [Example A-181]: the pest or weed control at 250 g/ha in experiment [1] is 20%; in experiment [2] it was 0%; in experiment [3], 0%; in experiment [4], 30%; in experiment [5], 0%; in experiment [6] it was 0%. For the same compound, the pest or weed control at 250 g/ha in experiment [7] and in experiment [8] was 0% in each case.

Regarding `CCc1ccc(Oc2ccc(Cl)c(Cl)c2)cc1C1=C(O)C(C)(C)OC(C)(C)C1=O` [Example A-182], the pest or weed control at 250 g/ha was found to be 60% in experiment [1]; 60% in experiment [2]; 90% in experiment [3]; 100% in experiment [4]; 80% in experiment [5]; 30% in experiment [6]. The pest or weed control at 250 g/ha in experiment [7] came to 30%; in experiment [8], 90%.
